A word on the pIC50: it is −log10 of the IC50, conventionally taken in molar units. What is called inhibition in vivo is the percentage by which the read-out fell short of the control. By inhibition is commonly meant the share of the control response that was lost under treatment.

Consider 27 compounds from ChEMBL document CHEMBL5257022, “An integrated overview on pyrrolizines as potential anti-inflammatory, analgesic and antipyretic agents” (Eur J Med Chem, 2016).

pIC50: −log10 of the molar value.

In series [1] the target is T1, Polyunsaturated fatty acid 5-lipoxygenase (Homo sapiens, UniProt P09917).
T1 sequence (P09917 whole entry): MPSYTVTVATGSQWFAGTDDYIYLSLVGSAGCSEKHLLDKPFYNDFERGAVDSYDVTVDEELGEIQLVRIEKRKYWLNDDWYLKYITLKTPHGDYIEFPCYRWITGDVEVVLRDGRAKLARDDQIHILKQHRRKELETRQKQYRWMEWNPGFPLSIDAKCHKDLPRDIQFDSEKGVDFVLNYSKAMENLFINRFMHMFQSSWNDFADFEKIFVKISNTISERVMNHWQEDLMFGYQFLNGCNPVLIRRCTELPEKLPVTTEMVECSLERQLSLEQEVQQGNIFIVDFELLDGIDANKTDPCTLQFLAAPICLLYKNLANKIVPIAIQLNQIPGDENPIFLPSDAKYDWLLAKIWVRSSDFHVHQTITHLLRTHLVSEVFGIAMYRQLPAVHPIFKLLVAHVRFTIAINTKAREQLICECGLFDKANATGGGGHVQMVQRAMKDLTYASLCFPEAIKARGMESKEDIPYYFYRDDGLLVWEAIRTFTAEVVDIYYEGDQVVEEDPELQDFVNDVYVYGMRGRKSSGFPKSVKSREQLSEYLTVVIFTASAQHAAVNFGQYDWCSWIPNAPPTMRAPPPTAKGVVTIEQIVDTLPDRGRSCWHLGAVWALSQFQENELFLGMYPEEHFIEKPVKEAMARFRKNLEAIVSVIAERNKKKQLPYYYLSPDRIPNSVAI
Description: Inhibition of 5-LOX (unknown origin).

Series [2] has as its target T2, Prostaglandin G/H synthase 1 (Bos taurus) (UniProt O62664).
T2 sequence (whole entry): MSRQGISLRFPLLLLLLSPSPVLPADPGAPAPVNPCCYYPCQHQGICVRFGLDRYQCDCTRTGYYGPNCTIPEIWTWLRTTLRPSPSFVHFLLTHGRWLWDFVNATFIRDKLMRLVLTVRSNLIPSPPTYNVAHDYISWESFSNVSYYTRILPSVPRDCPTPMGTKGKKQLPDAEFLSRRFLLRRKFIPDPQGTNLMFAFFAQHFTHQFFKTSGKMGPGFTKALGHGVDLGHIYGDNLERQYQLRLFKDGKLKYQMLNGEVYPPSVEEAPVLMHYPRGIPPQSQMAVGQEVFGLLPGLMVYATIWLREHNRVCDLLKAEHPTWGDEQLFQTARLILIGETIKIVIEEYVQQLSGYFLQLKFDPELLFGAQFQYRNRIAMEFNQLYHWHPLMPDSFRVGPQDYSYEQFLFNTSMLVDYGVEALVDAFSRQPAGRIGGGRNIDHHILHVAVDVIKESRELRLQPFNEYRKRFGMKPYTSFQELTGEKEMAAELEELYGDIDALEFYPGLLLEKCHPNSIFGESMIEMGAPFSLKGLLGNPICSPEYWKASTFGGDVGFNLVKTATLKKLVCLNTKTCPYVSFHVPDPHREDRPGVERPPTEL
Description: Inhibition of COX1 in bovine thrombocyte at 10 uM relative to control.

Series [3] is described as follows: Toxicity in gastric mucosa of rat assessed as ulcer index at 10 mg/kg. The series is classed as organism-based. Particulars: in vivo.
The nature of series [4]: Drug excretion in human urine assessed as glucuronide conjugate level. Format: ADME.
A short description of series [5]: Drug excretion in human urine assessed as 4-hydroxy keto ro lac level. Format: ADME.
Series [6] is described as follows: Drug excretion in human urine assessed as keto ro lac level. The series is classed as ADME.
A short description of series [7]: Toxicity in gastric mucosa of rat assessed as ulcer index at 400 mg/kg. The series is classed as organism-based. Particulars: in vivo.
The nature of series [8]: Toxicity in gastric mucosa of rat assessed as ulcer index at 200 mg/kg. The series is classed as organism-based. The conditions noted are these: in vivo.
Series [9] addresses T3, Polyunsaturated fatty acid 5-lipoxygenase (Homo sapiens) (UniProt P09917).
T3 sequence (whole entry): T1 sequence (P09917 whole entry)
In words: Inhibition of 5-LOX in human PMNL at 10 uM relative to control. Format: cell-based.

The test system of series [10] is Rattus norvegicus. In words: Antiinflammatory activity in rat assessed as inhibition of paw edema. The series is classed as functional.
The nature of series [11]: Gastrointestinal toxicity in rat assessed as ulcer index at 20 mg/kg, po. Format: organism-based. The conditions noted are these: in vivo.
In series [12] the target is T4, Prostaglandin G/H synthase 2 (Homo sapiens, UniProt P35354).
T4 sequence (P35354 whole entry): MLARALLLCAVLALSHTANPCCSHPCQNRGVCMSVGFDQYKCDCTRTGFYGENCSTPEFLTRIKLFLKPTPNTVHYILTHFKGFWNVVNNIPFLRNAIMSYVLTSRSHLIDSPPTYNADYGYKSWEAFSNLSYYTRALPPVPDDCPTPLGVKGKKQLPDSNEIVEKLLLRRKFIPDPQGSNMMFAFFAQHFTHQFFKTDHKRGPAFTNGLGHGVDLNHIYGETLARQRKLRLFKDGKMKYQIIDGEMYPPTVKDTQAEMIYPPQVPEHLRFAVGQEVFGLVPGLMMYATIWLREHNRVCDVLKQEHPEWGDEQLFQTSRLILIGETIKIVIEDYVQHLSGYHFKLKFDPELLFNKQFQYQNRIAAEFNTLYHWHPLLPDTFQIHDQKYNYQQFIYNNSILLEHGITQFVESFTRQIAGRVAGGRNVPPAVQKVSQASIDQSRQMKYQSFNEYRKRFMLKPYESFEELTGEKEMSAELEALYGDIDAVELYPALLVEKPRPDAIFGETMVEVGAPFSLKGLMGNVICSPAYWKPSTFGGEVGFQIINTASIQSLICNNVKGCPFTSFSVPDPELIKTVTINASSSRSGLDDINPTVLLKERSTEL
Description: Inhibition of COX2 (unknown origin).

Series [13] has as its system Rattus norvegicus. In words: Antiinflammatory activity in carrageenan induced Sprague-Dawley rat assessed as reduction in edema formation after 3 hrs. Format: functional. Particulars: read-out: ID50 (the source's name).
The target of series [14] is T5, Prostaglandin G/H synthase 1 (Homo sapiens, UniProt P23219). In words: Inhibition of human COX1.
Series [15] has as its target T4, Prostaglandin G/H synthase 2. Description: Inhibition of human COX2.
For series [16], the target named is T5, Prostaglandin G/H synthase 1. Description: Inhibition of COX1 (unknown origin).
Series [17] has as its system Mus musculus. Description: Analgesic activity in ddY mouse assessed as inhibition of acetic acid induced writhing at 30 mg/kg, po for 30 mins followed by acetic acid injection and measured after 5 to 10 mins. The arrangement: scale not given: the % may be the effect or the level left. The conditions noted are these: time 35-40 min. The series is classed as functional. For orientation: An intraperitoneal irritant provokes the stretching counted in writhing tests.

In series [18] the test system is Rattus norvegicus. Description: Antiinflammatory activity against carrageenan-induced paw edema in Wistar rat assessed as inhibition of edema at 30 mg/kg, po for 1 hr prior to carrageenan induction. The series is classed as functional. On the technique in general: The carrageenan paw model is a standard test of acute inflammation.
Series [19] deals with Rattus norvegicus. In words: Antiinflammatory activity in rat assessed as fold change in inhibition of paw edema relative to phenylbutazone. Format: functional.
The species entered for series [20] is Mus musculus. Description: Analgesic activity in mouse assessed as inhibition of acetic acid-induced writhing response relative to aspirin. Format: functional.
For the next series, the species on record is Oryctolagus cuniculus. Description: Inhibition of collagen-induced platelet aggregation in rabbit concha artery blood at 10 uM. The series is classed as functional.

T5 sequence (P23219 whole entry): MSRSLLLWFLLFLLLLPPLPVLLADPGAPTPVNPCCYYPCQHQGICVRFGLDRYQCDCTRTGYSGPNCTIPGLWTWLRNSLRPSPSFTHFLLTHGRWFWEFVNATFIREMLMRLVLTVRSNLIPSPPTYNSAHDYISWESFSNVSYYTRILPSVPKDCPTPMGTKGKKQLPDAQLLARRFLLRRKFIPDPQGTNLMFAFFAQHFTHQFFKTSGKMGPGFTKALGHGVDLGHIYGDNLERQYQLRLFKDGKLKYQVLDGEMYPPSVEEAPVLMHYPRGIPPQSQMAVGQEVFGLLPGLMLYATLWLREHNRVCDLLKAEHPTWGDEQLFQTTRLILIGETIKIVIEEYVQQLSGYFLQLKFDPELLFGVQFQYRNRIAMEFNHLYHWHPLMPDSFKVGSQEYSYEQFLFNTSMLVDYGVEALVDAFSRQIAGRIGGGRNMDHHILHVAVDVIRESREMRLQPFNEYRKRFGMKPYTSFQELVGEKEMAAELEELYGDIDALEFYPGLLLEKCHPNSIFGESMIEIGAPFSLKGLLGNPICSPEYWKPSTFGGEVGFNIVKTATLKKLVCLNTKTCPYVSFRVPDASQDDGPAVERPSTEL

In series [1], `Brc1ccc(-c2cn3c(c2-c2ccccc2)CCC3)s1` gave a pIC50 of 5.08. The compound also came in with an IP in series [2] of 25%.

Regarding `COc1ccc2c(c1)c(CC(=O)O)c(C)n2C(=O)c1ccc(Cl)cc1` [INDOMETHACIN], the UI in series [3] is reported as 14.

For the compound `Cc1ccc(NCC2Cn3cccc3C2=O)cc1` (stereo unspecified), the Drug excretion in series [4] turned out to be 28%; in series [5], 12%; in [6], 60%. Further, the UI in series [7] came to 0.

Turning to `CC(C)Cc1ccc(C(C)C(=O)O)cc1` (stereo unspecified) [IBUPROFEN], the UI in [8] worked out at 13.3.

For the compound `CS(=O)(=O)Nc1ccc(-c2cn3c(c2-c2ccc(Cl)cc2)CCC3)cc1`, the IP in [9] and in [2] was 0% in each case.

Regarding `O=C(Nc1ccccc1Cl)c1c2[nH]cnc(=O)c2c2n1CCC2`, the “inhibition (INH)” value in the series with Rattus norvegicus [10] is given as 30.3%. Further, in series [11], the UI amounted to 15.1.

In series [12], `CSc1ccc(-c2cn3c(c2-c2ccc(F)cc2)CCC3)cc1` had a pIC50 of 7.00. Besides, the results for the IP in series [9] and in series [2] were 0% and 28%, respectively.

For `N#Cc1c(N)c(C(=O)Nc2ccccc2Cl)n2c1CCC2`, the “inhibition (INH)” value in the series with Rattus norvegicus [10] was 36.1%. For the same compound, in [11], the UI was found to be 9.2.

Regarding `O=C(c1ccccc1)c1ccc2n1CC[C@@H]2C(=O)O`, the ED50 in the series on Rattus norvegicus [13] was determined as 0.02 mg/kg. Also, the pIC50 in series [14] was 6.34; in [15] it was 5.84.

With `O=C(O)/C=C/c1c(-c2ccc(CCc3ccccc3)cc2)c(-c2ccccc2)c2n1CCC2`, in series [16], the pIC50 is 5.00. The compound further came in with an IP in series [2] of 58%.

Take `O=C(c1ccccc1)c1ccc2n1CC[C@H]2C(=O)O`: the ED50 in the series on Rattus norvegicus [13] is 4 mg/kg. For the same compound, the pIC50 in series [14] and in series [15] was less than 4.00 throughout.

As for `CS(=O)(=O)c1ccc(-c2cn3c(c2-c2ccc(F)cc2)CCC3)cc1`, the results for the pIC50 in series [12] and in [16] were 6.80 and 5.37, respectively. Further, the IP in series [9] is 0%.

Take `CS(=O)(=O)c1ccc(-c2cn3c(c2-c2ccccc2)CCC3)cc1`: the pIC50 in series [12] is 7.52; in [1] it was 5.00. Moreover, in [2], the IP came to 25%.

Consider `CSc1ccc(-c2cn3c(c2-c2ccc(C)cc2)CCC3)cc1`, for which the values for the pIC50 in [12] and in series [16] were 6.05 and 7.52, respectively. Besides, the IP in series [9] is 0%.

Take `CSc1ccc(-c2cn3c(c2-c2ccccc2)CCC3)cc1`: the pIC50 is 6.00 in series [12] and 5.96 in [16]. For the same compound, the IP in [9] came to 0%.

`Cc1ccccc1NC(=O)c1c2[nH]cnc(=O)c2c2n1CCC2`: the “inhibition (INH)” value with Rattus norvegicus [10] is 28.8%. For the same compound, in series [11], the UI is 17.4.

In the case of `O=C(O)C1CCn2c1cc(-c1ccc(Cl)cc1)c2-c1ccc(Cl)cc1` (stereo unspecified), in the series on Mus musculus [17], the Activity stood at 81.3%. Also, in the series on Rattus norvegicus [18], the inhibition in vivo at 30 mg/kg is 52.3%.

Consider `COc1ccc(-c2c(-c3ccc(Cl)cc3)cc3n2CCC3C(=O)O)cc1` (stereo unspecified), for which the Activity in the series with Mus musculus [17] amounted to 87.3%. Besides, in the series on Rattus norvegicus [18], the inhibition in vivo at 30 mg/kg was 48.2%.

As for `CS(=O)(=O)Nc1ccc(-c2cn3c(c2-c2ccccc2)CCC3)cc1`, the values for the pIC50 in [12] and in [1] were 5.44 and 5.47, respectively. This compound gave an IP in [2] of 10%.

In series [16], `Clc1ccc(-c2cn3c(c2-c2ccccc2)CCC3)s1` gave a negative-log IC50 (pIC50) of 5.41. The compound further displayed an IP in series [9] of 0%.

Turning to `O=C(c1ccccc1)c1ccc2n1CCC2C(=O)O` (racemic) [KETOROLAC], the ED50 with Rattus norvegicus [13] was 0.08 mg/kg. The pIC50 in series [14] is 5.91; in series [15], 5.46. Besides, the “fold change (FC)” value in the series with Rattus norvegicus [19] was found to be 36; in the series listed under Mus musculus [20], 350.

In the case of `c1ccc(-c2c(-c3ccco3)cn3c2CCC3)cc1`, in series [1], the pIC50 was 5.00. Also, in series [2], the IP was found to be 20%.

As to `Cc1ccccc1NC(=O)c1c(N)c(C#N)c2n1CCC2`, in the series with Rattus norvegicus [10], the “inhibition (INH)” value is on record as 31.6%. Further, the UI in series [11] is on record as 11.3.

In the case of `CS(=O)(=O)c1ccc(-c2cn3c(c2-c2ccc(Cl)cc2)CCC3)cc1`, the pIC50 is 8.10 in series [12] and 5.09 in [16]. The IP in series [9] stood at 0%.

For `c1ccc(-c2c(-c3cccs3)cn3c2CCC3)cc1`, the pIC50 in series [1] is 5.00.

In the case of `O=C(Nc1ccccc1)C1CCn2c1cc(-c1ccc(Cl)cc1)c2-c1ccc(Cl)cc1` (stereo unspecified), the inhibition in vivo at 30 mg/kg with Rattus norvegicus [18] is 37.4%. Further, testing at 10 µM in the series listed under Oryctolagus cuniculus gave an inhibition of 78%.

Regarding `Cc1ccc(-c2cn3c(c2-c2ccccc2)CCC3)s1`, in series [12], the pIC50 is 5.74. Further, the IP in series [9] and in [2] was 0% throughout.
